What was measured:
[1] = tested on: Hepatocyte; assay: Drug metabolism in rat hepatocytes assessed as (S)-2-(4-(trifluoromethylsulfonyloxy)phenyl)propanoic acid level at 10 uM after 60 mins; type: ADME, cell-based; conditions: 1 h
[2] = tested on: Hepatocyte; assay: Drug metabolism in rat hepatocytes assessed as (S)-2-(4-(trifluoromethylsulfonyloxy)phenyl)propanoic acid level at 10 uM after 30 mins; type: ADME, cell-based; conditions: 0.5 h
[3] = tested on: Hepatocyte; assay: Drug metabolism in rat hepatocytes assessed as (S)-2-(4-(trifluoromethylsulfonyloxy)phenyl)propanoic acid level at 10 uM after 15 mins; type: ADME, cell-based; conditions: 0.25 h
[4] = tested on: Hepatocyte; assay: Drug metabolism in human hepatocytes assessed as (S)-2-(4-(trifluoromethylsulfonyloxy)phenyl)propanoic acid level at 10 uM after 120 mins; type: ADME, cell-based; conditions: 2 h
[5] = tested on: Hepatocyte; assay: Drug metabolism in human hepatocytes assessed as (S)-2-(4-(trifluoromethylsulfonyloxy)phenyl)propanoic acid level at 10 uM after 90 mins; type: ADME, cell-based; conditions: 1.5 h
[6] = tested on: Hepatocyte; assay: Drug metabolism in human hepatocytes assessed as (S)-2-(4-(trifluoromethylsulfonyloxy)phenyl)propanoic acid level at 10 uM after 60 mins; type: ADME, cell-based; conditions: 1 h
[7] = tested on: Hepatocyte; assay: Drug metabolism in human hepatocytes assessed as (S)-2-(4-(trifluoromethylsulfonyloxy)phenyl)propanoic acid level at 10 uM after 30 mins; type: ADME, cell-based; conditions: 0.5 h
[8] = tested on: Hepatocyte; assay: Drug metabolism in human hepatocytes assessed as (S)-2-(4-(trifluoromethylsulfonyloxy)phenyl)propanoic acid level at 10 uM after 15 mins; type: ADME, cell-based; conditions: 0.25 h
[9] = Chemical stability of the compound assessed as compound remaining at pH 9 after 2 hrs; type: physicochemical; conditions: buffer, read-out: Stability
[10] = Chemical stability of the compound assessed as compound remaining at pH 3.5 after 2 hrs; type: physicochemical; conditions: buffer, read-out: Stability
[11] = Metabolic stability in rat liver microsomes assessed as compound remaining at 1 uM preincubated for 10 mins measured after 30 mins; type: ADME, Microsome; conditions: read-out: Stability
[12] = Metabolic stability in rat plasma assessed as compound remaining at 1 uM after 1 hr; type: ADME, cell-free; conditions: read-out: Stability
[13] = biological target: CYP2C19 (Homo sapiens, UniProt P33261); assay: Inhibition of CYP2C19 using DBF as substrate at 10 uM; type: ADME; conditions: probe DBF
[14] = tested on: Hepatocyte; assay: Drug metabolism in human hepatocytes assessed as (R)-2-(4-(trifluoromethylsulfonyloxy)phenyl)propanoic acid level at 10 uM after 15 mins; type: ADME, cell-based; conditions: 0.25 h
[15] = tested on: Hepatocyte; assay: Drug metabolism in human hepatocytes assessed as (R)-2-(4-(trifluoromethylsulfonyloxy)phenyl)propanoic acid level at 10 uM after 30 mins; type: ADME, cell-based; conditions: 0.5 h
[16] = tested on: Hepatocyte; assay: Drug metabolism in human hepatocytes assessed as (R)-2-(4-(trifluoromethylsulfonyloxy)phenyl)propanoic acid level at 10 uM after 60 mins; type: ADME, cell-based; conditions: 1 h
[17] = tested on: Hepatocyte; assay: Drug metabolism in human hepatocytes assessed as (R)-2-(4-(trifluoromethylsulfonyloxy)phenyl)propanoic acid level at 10 uM after 90 mins; type: ADME, cell-based; conditions: 1.5 h
[18] = tested on: Hepatocyte; assay: Drug metabolism in human hepatocytes assessed as (R)-2-(4-(trifluoromethylsulfonyloxy)phenyl)propanoic acid level at 10 uM after 120 mins; type: ADME, cell-based; conditions: 2 h
[19] = biological target: CYP2C9 (Homo sapiens, UniProt P11712); assay: Inhibition of CYP2C9 using 7MFC as substrate at 10 uM; type: ADME; conditions: probe 7MFC
[20] = biological target: CYP3A4 (Homo sapiens, UniProt P08684); assay: Inhibition of CYP3A4 using BFC as substrate at 10 uM; type: ADME; conditions: probe BFC
[21] = biological target: CYP2D6 (Homo sapiens, UniProt P10635); assay: Inhibition of CYP2D6 using AMMC as substrate at 10 uM; type: ADME; conditions: probe AMMC
[22] = biological target: T1, CYP1A2 (Homo sapiens, UniProt P05177); assay: Inhibition of CYP1A2 using CEC as substrate at 10 uM; type: ADME; conditions: probe CEC
T1 sequence (P05177 whole entry): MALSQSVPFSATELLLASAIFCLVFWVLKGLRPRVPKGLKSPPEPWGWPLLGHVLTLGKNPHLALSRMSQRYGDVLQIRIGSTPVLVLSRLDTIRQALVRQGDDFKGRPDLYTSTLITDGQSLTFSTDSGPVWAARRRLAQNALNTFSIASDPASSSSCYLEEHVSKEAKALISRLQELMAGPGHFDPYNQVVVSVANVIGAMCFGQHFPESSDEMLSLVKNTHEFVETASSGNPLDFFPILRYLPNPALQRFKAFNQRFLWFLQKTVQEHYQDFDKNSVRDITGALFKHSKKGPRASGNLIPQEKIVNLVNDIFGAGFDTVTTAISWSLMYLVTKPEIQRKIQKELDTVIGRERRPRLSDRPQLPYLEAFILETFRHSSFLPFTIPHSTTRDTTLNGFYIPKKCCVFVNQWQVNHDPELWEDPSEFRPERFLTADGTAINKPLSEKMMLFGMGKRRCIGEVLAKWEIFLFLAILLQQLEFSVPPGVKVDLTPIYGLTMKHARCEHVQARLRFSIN

[23] = biological target: T2, C-X-C chemokine receptor type 2 (Homo sapiens) (UniProt P25025); assay: Inhibition of CXCR2 in human polymorphonucleate cells assessed as inhibition of CXCL1-induced chemotaxis at 10^-8 M incubated for 15 mins prior to CXCL1-induction measured after 45 mins
T2 sequence (whole entry): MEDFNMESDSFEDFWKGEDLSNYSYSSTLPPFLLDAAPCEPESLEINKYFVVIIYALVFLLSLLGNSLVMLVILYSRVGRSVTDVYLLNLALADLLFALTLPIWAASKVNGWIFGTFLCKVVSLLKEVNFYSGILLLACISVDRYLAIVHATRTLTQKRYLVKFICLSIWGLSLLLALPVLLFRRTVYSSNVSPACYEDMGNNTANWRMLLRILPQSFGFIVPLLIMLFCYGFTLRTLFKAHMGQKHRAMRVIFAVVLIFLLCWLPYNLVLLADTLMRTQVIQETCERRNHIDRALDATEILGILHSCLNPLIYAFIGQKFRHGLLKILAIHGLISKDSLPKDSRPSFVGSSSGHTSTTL

[24] = biological target: Interleukin-8 receptors, CXCR1/CXCR2 (Homo sapiens) (UniProt P25025+P25024); assay: Inhibition of CXCR1/2 in human polymorphonucleate cells assessed as inhibition of CXCL8-induced chemotaxis at 10^-8 M incubated for 15 mins prior to CXCL8-induction measured after 45 mins
[25] = Clearance in Sprague-Dawley rat at 14 mg/kg, iv; type: ADME, organism-based; design: dose 14 mg/kg, route intravenous; conditions: in vivo
[26] = Oral bioavailability in Sprague-Dawley rat at 14 mg/kg; type: ADME, organism-based; conditions: in vivo
[27] = Elimination half life in Sprague-Dawley rat at 14 mg/kg, iv; type: ADME, organism-based; design: dose 14 mg/kg, route intravenous; conditions: in vivo, read-out: beta t1/2 (converted)
[28] = biological target: Voltage-gated inwardly rectifying potassium channel KCNH2 (Homo sapiens, UniProt Q12809); assay: Displacement of [3H]astemizole from human ERG expressed in HEK293 cells at 10 uM for 60 mins by liquid scintillation counting; type: cell-based; conditions: hek293, 1 h
[29] = Dissociation constant, pKa of the compound; type: physicochemical
[30] = tested on: Hepatocyte; assay: Drug metabolism in rat hepatocytes assessed as (R)-2-(4-(trifluoromethylsulfonyloxy)phenyl)propanoic acid level at 10 uM after 120 mins; type: ADME, cell-based; conditions: 2 h
[31] = tested on: Hepatocyte; assay: Drug metabolism in rat hepatocytes assessed as (R)-2-(4-(trifluoromethylsulfonyloxy)phenyl)propanoic acid level at 10 uM after 90 mins; type: ADME, cell-based; conditions: 1.5 h
[32] = tested on: Hepatocyte; assay: Drug metabolism in rat hepatocytes assessed as (R)-2-(4-(trifluoromethylsulfonyloxy)phenyl)propanoic acid level at 10 uM after 60 mins; type: ADME, cell-based; conditions: 1 h
[33] = tested on: Hepatocyte; assay: Drug metabolism in rat hepatocytes assessed as (R)-2-(4-(trifluoromethylsulfonyloxy)phenyl)propanoic acid level at 10 uM after 30 mins; type: ADME, cell-based; conditions: 0.5 h
[34] = tested on: Hepatocyte; assay: Drug metabolism in rat hepatocytes assessed as (R)-2-(4-(trifluoromethylsulfonyloxy)phenyl)propanoic acid level at 10 uM after 15 mins; type: ADME, cell-based; conditions: 0.25 h
[35] = tested on: Hepatocyte; assay: Drug metabolism in rat hepatocytes assessed as (S)-2-(4-(trifluoromethylsulfonyloxy)phenyl)propanoic acid level at 10 uM after 120 mins; type: ADME, cell-based; conditions: 2 h
[36] = tested on: Hepatocyte; assay: Drug metabolism in rat hepatocytes assessed as (S)-2-(4-(trifluoromethylsulfonyloxy)phenyl)propanoic acid level at 10 uM after 90 mins; type: ADME, cell-based; conditions: 1.5 h

CYP3A4, sequence (P08684 whole entry): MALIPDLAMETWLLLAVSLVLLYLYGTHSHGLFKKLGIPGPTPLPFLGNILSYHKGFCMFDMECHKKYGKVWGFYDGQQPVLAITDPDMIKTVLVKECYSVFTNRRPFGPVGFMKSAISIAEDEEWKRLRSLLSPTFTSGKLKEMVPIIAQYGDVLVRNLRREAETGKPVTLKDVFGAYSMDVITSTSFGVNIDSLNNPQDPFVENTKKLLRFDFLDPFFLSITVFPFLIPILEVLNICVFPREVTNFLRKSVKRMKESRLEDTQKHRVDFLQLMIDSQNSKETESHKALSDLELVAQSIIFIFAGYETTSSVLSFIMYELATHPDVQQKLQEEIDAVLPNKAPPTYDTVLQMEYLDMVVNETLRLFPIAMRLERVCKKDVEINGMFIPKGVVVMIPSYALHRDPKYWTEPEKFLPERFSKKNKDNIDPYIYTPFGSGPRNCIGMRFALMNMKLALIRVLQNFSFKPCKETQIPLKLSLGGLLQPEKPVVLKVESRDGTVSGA
CYP2C19, sequence (P33261 whole entry): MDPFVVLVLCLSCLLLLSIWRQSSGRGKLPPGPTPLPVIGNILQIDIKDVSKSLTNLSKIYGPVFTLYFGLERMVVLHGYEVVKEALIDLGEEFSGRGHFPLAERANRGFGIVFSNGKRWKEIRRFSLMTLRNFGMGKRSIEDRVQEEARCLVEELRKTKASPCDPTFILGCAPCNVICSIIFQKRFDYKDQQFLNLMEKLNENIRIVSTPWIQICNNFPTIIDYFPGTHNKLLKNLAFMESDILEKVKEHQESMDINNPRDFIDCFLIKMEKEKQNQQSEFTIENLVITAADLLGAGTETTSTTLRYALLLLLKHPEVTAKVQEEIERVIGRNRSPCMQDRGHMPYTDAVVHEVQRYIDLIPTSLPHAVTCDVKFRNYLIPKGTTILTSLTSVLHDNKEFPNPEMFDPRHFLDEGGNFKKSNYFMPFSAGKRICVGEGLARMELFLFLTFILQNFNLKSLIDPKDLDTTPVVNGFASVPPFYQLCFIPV
CYP2D6, sequence (P10635 whole entry): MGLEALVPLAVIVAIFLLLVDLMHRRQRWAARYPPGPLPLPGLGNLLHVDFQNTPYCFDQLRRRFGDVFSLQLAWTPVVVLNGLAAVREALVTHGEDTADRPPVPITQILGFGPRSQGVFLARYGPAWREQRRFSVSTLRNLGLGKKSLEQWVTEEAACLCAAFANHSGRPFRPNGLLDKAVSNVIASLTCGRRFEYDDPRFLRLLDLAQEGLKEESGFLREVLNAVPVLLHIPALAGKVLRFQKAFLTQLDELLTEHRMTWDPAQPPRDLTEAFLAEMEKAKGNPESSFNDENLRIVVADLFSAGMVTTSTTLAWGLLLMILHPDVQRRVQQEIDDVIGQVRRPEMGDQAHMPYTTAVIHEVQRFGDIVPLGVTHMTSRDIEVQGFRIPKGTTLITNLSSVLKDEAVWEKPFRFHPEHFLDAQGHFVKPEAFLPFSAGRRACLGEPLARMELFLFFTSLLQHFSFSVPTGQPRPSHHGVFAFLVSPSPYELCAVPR
CYP2C9, sequence (P11712 whole entry): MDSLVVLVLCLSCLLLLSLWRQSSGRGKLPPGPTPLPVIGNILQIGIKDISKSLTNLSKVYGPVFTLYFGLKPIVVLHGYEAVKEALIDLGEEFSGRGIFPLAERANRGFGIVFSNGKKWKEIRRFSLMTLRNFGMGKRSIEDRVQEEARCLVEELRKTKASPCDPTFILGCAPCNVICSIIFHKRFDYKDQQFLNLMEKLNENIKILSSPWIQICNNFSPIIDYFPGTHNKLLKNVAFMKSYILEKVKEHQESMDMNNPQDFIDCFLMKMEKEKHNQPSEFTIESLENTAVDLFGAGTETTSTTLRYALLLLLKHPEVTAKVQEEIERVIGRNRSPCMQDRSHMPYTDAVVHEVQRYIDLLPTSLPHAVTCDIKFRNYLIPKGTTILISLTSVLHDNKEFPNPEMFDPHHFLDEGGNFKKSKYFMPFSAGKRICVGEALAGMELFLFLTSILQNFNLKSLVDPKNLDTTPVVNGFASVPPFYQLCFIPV
Voltage-gated inwardly rectifying potassium channel KCNH2, sequence (Q12809 whole entry): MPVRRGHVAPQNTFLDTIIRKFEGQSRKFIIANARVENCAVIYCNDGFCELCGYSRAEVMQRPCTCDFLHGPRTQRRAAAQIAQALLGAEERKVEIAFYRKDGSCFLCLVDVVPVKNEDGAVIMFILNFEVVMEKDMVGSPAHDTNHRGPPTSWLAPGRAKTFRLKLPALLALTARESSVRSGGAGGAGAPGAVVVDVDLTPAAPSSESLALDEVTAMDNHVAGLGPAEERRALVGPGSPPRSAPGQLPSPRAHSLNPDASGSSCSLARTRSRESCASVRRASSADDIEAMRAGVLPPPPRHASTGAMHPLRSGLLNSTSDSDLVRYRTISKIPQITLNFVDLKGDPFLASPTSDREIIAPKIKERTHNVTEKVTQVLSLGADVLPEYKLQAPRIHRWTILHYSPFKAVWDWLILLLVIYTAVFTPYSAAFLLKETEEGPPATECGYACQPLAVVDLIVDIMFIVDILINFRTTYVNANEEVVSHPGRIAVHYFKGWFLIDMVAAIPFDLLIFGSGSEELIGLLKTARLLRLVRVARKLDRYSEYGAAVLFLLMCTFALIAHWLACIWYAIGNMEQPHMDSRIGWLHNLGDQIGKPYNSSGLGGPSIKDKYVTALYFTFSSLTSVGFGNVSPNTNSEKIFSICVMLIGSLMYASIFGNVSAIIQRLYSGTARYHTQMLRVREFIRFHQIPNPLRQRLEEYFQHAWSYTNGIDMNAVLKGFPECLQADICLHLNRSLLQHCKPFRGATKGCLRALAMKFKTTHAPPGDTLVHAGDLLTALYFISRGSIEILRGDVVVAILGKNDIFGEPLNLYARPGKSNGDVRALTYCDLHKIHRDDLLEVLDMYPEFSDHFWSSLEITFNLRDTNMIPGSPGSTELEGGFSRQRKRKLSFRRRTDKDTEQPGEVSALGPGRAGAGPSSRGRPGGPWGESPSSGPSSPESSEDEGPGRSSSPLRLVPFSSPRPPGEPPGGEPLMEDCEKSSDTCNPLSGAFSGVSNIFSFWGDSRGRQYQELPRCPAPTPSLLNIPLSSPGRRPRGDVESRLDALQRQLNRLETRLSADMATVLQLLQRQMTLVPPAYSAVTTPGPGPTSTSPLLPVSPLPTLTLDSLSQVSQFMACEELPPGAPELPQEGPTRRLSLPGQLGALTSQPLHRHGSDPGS

Work on `C[C@@H](C(=O)NS(C)(=O)=O)c1ccc(OS(=O)(=O)C(F)(F)F)cc1` [LADARIXIN] yielded a Drug metabolism [1] of 50 ng/mL, a Drug metabolism [2] of 31 ng/mL and a Drug metabolism [3] of 7 ng/mL. It also gave a Drug metabolism [4] of 6 ng/mL, a Drug metabolism [5] of 3 ng/mL and a Drug metabolism [6] of 2 ng/mL. The Drug metabolism [7] was < 1 ng/mL, the Drug metabolism [8] was < 1 ng/mL and the remaining at 2 h [9] was 30%. For the same compound, the remaining at 2 h [10] was > 99%, the remaining at 0.5 h, 1 µM [11] was 100% and the remaining at 1 h, 1 µM [12] was 100%. The inhibition at 10 µM [13] was < 5%, the Drug metabolism [14] was < 1 ng/mL and the Drug metabolism [15] was 3 ng/mL. For the same compound, the Drug metabolism [16] was 15 ng/mL, the Drug metabolism [17] was 20 ng/mL and the Drug metabolism [18] was 30 ng/mL. For the same compound, the inhibition at 10 µM [19] was < 5%, the inhibition at 10 µM [20] was < 5% and the inhibition at 10 µM [21] was < 5%. For the same compound, the inhibition at 10 µM [22] was < 5%, the inhibition [23] was 68% and the inhibition [24] was 67%. For the same compound, the clearance [25] was 0.1 mL/min/kg, the bioavailability [26] was 100% and the half-life [27] was 19 h. For the same compound, the “inhibition (INH)” value [28] was “Not Active”, the pKa [29] was 4.4 and the Drug metabolism [30] was 4 ng/mL. For the same compound, the Drug metabolism [31] was 5 ng/mL, the Drug metabolism [32] was 3 ng/mL and the Drug metabolism [33] was 5 ng/mL. It also gave a Drug metabolism [34] of 22 ng/mL, a Drug metabolism [35] of 56 ng/mL and a Drug metabolism [36] of 54 ng/mL.

— ChEMBL document CHEMBL2021812, “Aryltriflates as a Neglected Moiety in Medicinal Chemistry: A Case Study from a Lead Optimization of CXCL8 Inhibitors” (ACS Med Chem Lett, 2011)
